The source of these data is patent US6057314A, “Low molecular weight bicyclic thrombin inhibitors” (Biochem Pharma Inc., priority 1997, dated 2000).

Experiment [1] deals with T1, human thrombin (Homo sapiens, UniProt P00734). The experiment is described as follows: Inhibition of amidolytic activity of human thrombin (Ki, fluorogenic substrate Tos-Gly-Pro-Arg-AMC). The format is biochemical. On the procedure: In an assay to determine the inhibitory dissociation constant, Ki, for a given compound, a chromogenic or fluorogenic substrate of thrombin would be added to a solution containing a test compound and thrombin; the resulting catalytic activity of the enzyme would be spectrophotometrically determined. This type of assay is well known to those skilled in the art.
Determination of K1 Values for Heterocyclics
The steady-state velocity was then measured for a few minutes. The compounds of this invention were also pre-incubated with thrombin for 20 minutes at room temperature before adding the substrate.

Experiment [2] addresses T1, human thrombin. The experiment is described as follows: dTT assay (fibrin clotting assay, human thrombin and bovine fibrinogen). The format is biochemical. The note with it: concentration required to double the clotting time. The source says:
The clotting time was plotted against the inhibitor concentrations and the IC50 was estimated as the inhibitor concentration required to double the clotting time relative to the control.

The target in experiment [3] is T1, human thrombin. Kind of experiment: Fibrin clot assay (human plasma, turbidity). The format is biochemical. The settings on record: Table 1, 1 nM thrombin, at 30 minutes. On the procedure:
The fibrin clot assay was performed essentially as described by Krtenansky et al, FEBS, 1987, 211:10. A serial dilution of the inhibitor was prepared in 50 mM tri HCl buffer (pH 7.8 at 23° C.) containing 0.1 M NaCl and 0.1% (w/v) polyethylene glycol 8000. Human plasma (60 μL, collected in 3.8% sodium citrate, blood/anticoagulate 9:1) was added to microtiter wells (microtiter plate, Falcon) containing 100 μL of various inhibitor dilutions. The solution was mixed after which 50 μL of human thrombin (1 nM final conc.) was added and mixed for 15 seconds. The turbidity of the clot was immediately monitored by microplate autoreader (Dynateck MR 5000) at 405 nm and recorded every 3 min. The maximal turbidity in the absence of inhibitors was reached within 60 min. IC50 values were calculated at 30 minutes as the inhibitor concentration that gave half the optical density of the control.

Experiment [4] has as its system washed platelets from rats. The experiment is described as follows: Platelet secretion (14C-serotonin, 5-HT, release from washed rat platelets, thrombin stimulated). The format is cell-based. The settings on record: Table 1, human thrombin 0.1 IU/mL, read-out: Antiplatelet activity, 5-HT Secretion (IC50). As for the experimental part:
Platelet Aggregation and Secretion Rat blood was collected into ACD (6/1 v/v) by cardiac puncture. Suspensions of washed platelets were prepared as described by […] et al, (Br. J. Haematol. 1970, 19:7 and Proc. Soc. Exp. Biol. Med. 1971, 136:1021). […] Platelet counts were adjusted to 5000,000/ μL. To permit measurement of the extent of release of the contents of the dense granules, the platelets were labelled in the first washing solution with ^14 C-serotonin (5-HT) (1 μCi/10 mL of washing fluid) and release of ^14 C-serotonin was determined as described in Holmsen et al, (Enzymology, 1989, 169:206). […] (5 μM final conc.) was added to present the reuptake of released serotonin. Platelet aggregation was recorded at 37° C. in an aggregometer (BioData PAP-4) at a stirring speed of 1,100 rpm by measuring the variations of light transmission. […] IC50 values represent the concentration that was necessary to inhibit platelet aggregation or secretion to 50% of the control.

Experiment [5] relates to washed platelets from rats. The experiment is described as follows: Platelet aggregation (washed rat platelets, thrombin stimulated). The note with it: Table 1, suspension of washed platelets from rats, human thrombin 0.1 IU/mL, read-out: Antiplatelet activity, Aggregation (IC50). The format is cell-based. On the procedure:
Platelet Aggregation and Secretion Rat blood was collected into ACD (6/1 v/v) by cardiac puncture. Suspensions of washed platelets were prepared as described by […] et al, (Br. J. Haematol. 1970, 19:7 and Proc. Soc. Exp. Biol. Med. 1971, 136:1021). […] Platelet counts were adjusted to 5000,000/ μL. Platelet aggregation was recorded at 37° C. in an aggregometer (BioData PAP-4) at a stirring speed of 1,100 rpm by measuring the variations of light transmission. […] IC50 values represent the concentration that was necessary to inhibit platelet aggregation or secretion to 50% of the control.

The test system of another experiment is carotid artery in rats. Kind of experiment: FeCl3 induced carotid arterial injury model (arterial thrombosis) in rats, time to occlusion. It counts as in vivo, rat (Sprague-Dawley). The note with it: Table 2. As for the experimental part: Arterial Thrombosis Model
FeCl3 Induced Carotid Arterial Injury Model
Animals were laid on a 37° C. heating pad. The carotid artery was exposed through a midline cervical incision. Careful blunt dissection was used to isolate the vessel from the carotid sheath. […] A temperature probe (Physitemp*MT23/3) was placed between one of the pieces of tubing and the artery. Injury was induced by topical application on the carotid artery above the temperature probe of a small disc (3 mm dia.) of Whatman* No. 1 filter paper previously dipped in a 35% solution of FeCl3 […]. The vessel temperature was monitored for 60 minutes after application of FeCl3 as an indication of blood flow.
The time between the FeCl3 application and the time at which the vessel temperature decreased abruptly (>2.4° C.) was recorded as the time to occlusion of the vessel. Inhibitor compounds were given as an iv bolus (mg/kg) followed immediately by an iv infusion (μg/kg/min. via femoral vein). The dose of inhibitor needed to double the time to occlusion in comparison to control animals in which injury was induced in the absence of inhibitor was determined.

Where [6] appears, read: Table 1, read-out: Ki (inhibitory dissociation constant for human thrombin).

Where two headings read alike, the source gives them in different places.

By Ki is commonly meant a dissociation constant, usually derived from enzyme kinetics or from competition with a known ligand.

With `CCCC(=O)C(CCCNC(=N)N)NC(=O)[C@@H]1CSC2CC[C@@H](Cc3ccccc3)C(=O)N21` (stereo partly drawn) [Compound 0005, 6S-benzylhexahydro-5-oxo-5H-thiazolo[3,2-a]pyridine-3R-carboxamido (propyl ketoarginine)], the Ki on human thrombin [1] (setting [6]) was 4 µM. The IC50 is 47 µM at human thrombin [2] (Table 1, read-out: dTT IC50) and more than 450 µM against human thrombin [3].

On to `CCCCC(=O)C(CCCNC(=N)N)NC(=O)[C@@H]1CSC2CC[C@@H](Cc3ccccc3)C(=O)N21` (stereo partly drawn) [Compound 0010, 6S-benzylhexahydro-5-oxo-5H-thiazolo[3,2-a]pyridine-3R-carboxamido (butyl ketoarginine)], for which, at human thrombin [1] (setting [6]), the Ki is 4.6 µM. For the same compound, the IC50 at human thrombin [2] (Table 1, read-out: dTT IC50) is 89.5 µM; in experiment [4] it was 19 µM; at human thrombin [3], more than 450 µM; in experiment [5] it was 21 µM.

Consider `COC(=O)CCC(=O)C(CCCNC(=N)N)NC(=O)[C@@H]1CSC2CC[C@@H](Cc3ccccc3)C(=O)N21` (stereo partly drawn) [Compound 0015, 6S-benzylhexahydro-5-oxo-5H-thiazolo[3,2-a]pyridine-3R-carboxamido(propylcarbmethoxyketoarginine)], for which the Ki at human thrombin [1] (setting [6]) was 16 µM. The IC50 on human thrombin [2] (Table 1, read-out: dTT IC50) is 162 µM; in experiment [4] it was more than 100 µM; against human thrombin [3] it was more than 450 µM; in experiment [5] it was more than 100 µM.

For the compound `N=C(N)NCCCC(NC(=O)[C@@H]1CSC2CC[C@@H](CC3CCCCC3)C(=O)N21)C(=O)Cc1ccccc1` (stereo partly drawn) [Compound 0020, 6S-cyclohexymethyl hexahydro-5-oxo-5H-thiazolo[3,2-a]pyridine-3R-carboxamido(benzylketoarginine)], the Ki on human thrombin [1] (setting [6]) was 2.2 µM. Besides, the IC50 on human thrombin [2] (Table 1, read-out: dTT IC50) was 22 µM; in experiment [4], 14.2 µM; on human thrombin [3], more than 450 µM; in experiment [5], 18 µM.

Take `COC(=O)CCC1(C(CCCNC(=N)N)NC(=O)[C@@H]2CSC3CC[C@@H](CC4CCCCC4)C(=O)N32)SCCS1` (stereo partly drawn) [Compound 0025, 6S-cyclohexyl methyl hexahydro-5-oxo-5H-thiazolo[3,2-a]pyridine-3R-carboxamido(carbmethoxypropylcyclodithioketalarginine)]: the Ki on human thrombin [1] (setting [6]) turned out to be 53 µM. In addition, the IC50 at human thrombin [2] (Table 1, read-out: dTT IC50) was more than 625 µM; in experiment [4] it was more than 100 µM; on human thrombin [3] it was more than 450 µM; in experiment [5] it was more than 100 µM.

For the compound `N=C(N)NCCC[C@H](NC(=O)[C@@H]1CSC2CC[C@@H](CC3CCCCC3)C(=O)N21)C(=O)N1CCCC[C@@H]1C(=O)O` (stereo partly drawn) [Compound 0030, 6S-cyclohexylmethyl hexahydro-5-oxo-5H-thiazolo[3,2-a]pyridine-3R-carboxamido((S)-Arg-(R)-pipecolilic acid)], the inhibition constant (Ki) at human thrombin [1] (setting [6]) is 8.6 µM. The IC50 was 67 µM on human thrombin [2] (Table 1, read-out: dTT IC50); more than 100 µM in experiment [4]; 320 µM against human thrombin [3]; more than 100 µM in experiment [5].

For the compound `N=C(N)NCCCC(NC(=O)[C@@H]1CSC2CC[C@@H](Cc3ccccc3)C(=O)N21)C1(CCC(N)=O)SCCS1` (stereo partly drawn) [Compound 0035, 6S-benzylhexahydro-5-oxo-5H-thiazolo[3,2-a]pyridine-3R-carboxamido(carboxamidopropylcyclodithioketalarginine)], at human thrombin [1] (setting [6]), the Ki is 34 µM. Besides, the IC50 was 319 µM at human thrombin [2] (Table 1, read-out: dTT IC50); more than 100 µM in experiment [4]; more than 450 µM against human thrombin [3]; more than 100 µM in experiment [5].

For `N=C(N)NCCC[C@H](NC(=O)[C@@H]1CSC2CC[C@@H](CC3CCCCC3)C(=O)N21)C(=O)N1CCCC(C(N)=O)C1` (stereo partly drawn) [Compound 0040, 6S-cyclohexylmethylhexahydro-5-oxo-5H-thiazolo[3,2-a]pyridine-3R-carboxamido((S)-Argnipecotamide)], the Ki at human thrombin [1] (setting [6]) turned out to be 19 µM. For the same compound, the IC50 at human thrombin [2] (Table 1, read-out: dTT IC50) was 207 µM; in experiment [4], more than 100 µM; against human thrombin [3], more than 450 µM; in experiment [5], more than 100 µM.

As to `N=C(N)NCCC[C@H](NC(=O)[C@@H]1CSC2CC[C@@H](CC3CCCCC3)C(=O)N21)C(=O)N1CCC(C(N)=O)CC1` (stereo partly drawn) [Compound 0045, 6S-cyclohexylmethylhexahydro-5-oxo-5H-thiazolo[3,2-a]pyridine-3R-carboxamido((S)Argisonipecotamide)], the inhibition constant Ki at human thrombin [1] (setting [6]) came to 74 µM. Also, the IC50 was 415 µM at human thrombin [2] (Table 1, read-out: dTT IC50) and more than 450 µM against human thrombin [3].

With `N=C(N)NCCCC(NC(=O)[C@@H]1CSC2CC[C@@H](Cc3ccccc3)C(=O)N21)C1(CCCCC(N)=O)SCCS1` (stereo partly drawn) [Compound 0050, 6S-benzylhexahydro-5-oxo-5H-thiazolo[3,2-a]pyridine-3R-carboxamido(carboxamidopentylcyclodithioketalarginine)], the Ki at human thrombin [1] (setting [6]) came to 62 µM. The compound further came in with an IC50 against human thrombin [3] of more than 450 µM.

With `N=C(N)NCCCC(NC(=O)[C@@H]1CSC2CC[C@@H](CC3CCCCC3)C(=O)N21)C(=O)CSCC(=O)O` (stereo partly drawn) [Compound 0065, 6S-cyclohexylmethylhexahydro-5-oxo-5H-thiazolo[3,2-a]pyridine-3R-carboxamido(1-carboxy-3-thiobutylketoarginine)], the Ki at human thrombin [1] (setting [6]) came out at 32.7 µM. For the same compound, the IC50 on human thrombin [2] (Table 1, read-out: dTT IC50) was 42 µM; in experiment [4], 52 µM; at human thrombin [3], 200 µM; in experiment [5], 47.5 µM.

For the compound `N=C(N)NCCCC(NC(=O)[C@@H]1CSC2CC[C@@H](CC3CCCCC3)C(=O)N21)C(=O)C[n+]1ccc2ccccc2c1` (stereo partly drawn) [Compound 0080, 6S-cyclohexylmethylhexahydro-5-oxo-5H-thiazolo[3,2-a]pyridine-3R-carboxamido(iso-quinoliniummethylketoarginine)], the inhibitory constant (Ki) on human thrombin [1] (setting [6]) came to 0.048 µM. Further, the IC50 at human thrombin [2] (Table 1, read-out: dTT IC50) amounted to 0.375 µM; in experiment [4] it was 0.38 µM; in experiment [5] it was 0.4 µM.

`COC(=O)CCC(=O)C(CCCNC(=N)N)NC(=O)[C@@H]1CSC2CC[C@@H](Cc3ccccc3)C(=O)N21` (stereo partly drawn) [Compound 0100, 6S-benzylhexahydro-5-oxo-5H-thiazolo[3,2-a]pyridine-3R-carboxamido(propylcarbmethoxyketoarginine)]: the Ki on human thrombin [1] (setting [6]) is 19 µM. For the same compound, the IC50 at human thrombin [2] (Table 1, read-out: dTT IC50) came to 165 µM.

In the case of `N=C(N)NCCCC(NC(=O)[C@@H]1CC[C@H]2CN(C(=O)c3ccccc3)CC(=O)N21)C(=O)c1nccs1` (stereo partly shown) [Compound 0335, 2-Benzoyl-4-oxo-octahydro-pyrrolo[1,2-a]pyrazine-6-carboxylic acid[4-guanidino-1-(thiazole-2-carbonyl)-butyl]-amide], the Ki on human thrombin [1] (Table 2, read-out: Ki) stood at 0.025 µM. The “M.O.T (min)+/-sem” value with carotid artery in rats (ivb + inf 0.5-30 (iv bolus mg/kg, infusion μg/kg/min)) was 41.5 ± 7.27 min; in the experiment on carotid artery in rats (ivb + inf 0.75-50 (iv bolus mg/kg, infusion μg/kg/min)), 45.8 ± 14.2 min. Further, the IC50 at human thrombin [2] (Table 2, read-out: dTT) is 0.138 µM.
